Tests used:
[1] = biological target: T1, TRα (TR-receptor hybrid with yeast Gal4 DBD) (Homo sapiens, UniProt P10827); assay: Thyroid-hormone reporter-gene assay, TRα; format: cell-based; conditions: HEK293-derived reporter cells, firefly luciferase, 24 hr incubation
T1 construct: expressed in transfected cells; host or cells: HEK293
T1 sequence (P10827 1-410 isoform P10827-2): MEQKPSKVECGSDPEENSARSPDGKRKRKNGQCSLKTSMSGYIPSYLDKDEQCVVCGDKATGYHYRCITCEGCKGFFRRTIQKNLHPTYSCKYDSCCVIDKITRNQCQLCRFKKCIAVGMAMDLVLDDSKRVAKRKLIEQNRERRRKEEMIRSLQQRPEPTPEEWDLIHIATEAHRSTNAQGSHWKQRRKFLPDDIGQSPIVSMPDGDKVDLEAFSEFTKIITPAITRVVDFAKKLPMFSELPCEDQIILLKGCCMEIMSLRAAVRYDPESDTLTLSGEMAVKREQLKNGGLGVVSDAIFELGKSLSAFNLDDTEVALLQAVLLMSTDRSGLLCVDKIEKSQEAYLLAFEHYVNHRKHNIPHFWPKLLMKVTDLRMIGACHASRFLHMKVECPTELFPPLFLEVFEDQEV
Protocol: (§1) Compounds were tested for thyroid-hormone receptor activity using TR reporter-gene assays. Reporter cells used in the assays express a TR-receptor hybrid (either TRα or TRβ) in which the native N-terminal DNA binding domain (DBD) has been replaced with that of the yeast Gal4 DBD. The reporter gene, firefly luciferase, is functionally linked to the Gal4 upstream activation sequence (UAS). Both cell lines were derived from human embryonic kidney (HEK293). • Step 1: A suspension of reporter cells was prepared in cell recovery medium containing 10% charcoal-stripped FBS, and dispensed into assay plates. […] These intermediate stocks were subsequently diluted directly into compound screening medium containing 10% charcoal-stripped FBS to generate “2×-concentration” treatment media (containing 0.2, 0.4 or 0.8% DMSO). • Step 3: At the end of the pre-incubation period, culture media were discarded from the assay plates, and all wells received 100 μl of compound screening medium. 100 μl of each of the previously prepared “2×-concentration” treatment media were dispensed into duplicate assay wells, thereby achieving the desired final treatment concentrations. The final concentration of DMSO in all assay wells was 0.1, 0.2 or 0.4%. Assay plates were incubated for 24 hr in a cell culture incubator (37° C./5% CO2/85% humidity). • Step 4: At the 24 h assay endpoint, treatment media were discarded and 100 μl/well of luciferase detection reagent was added. Relative luminometer units (RLUs) were quantified from each assay well.

[2] = biological target: T2, TRβ (TR-receptor hybrid with yeast Gal4 DBD) (Homo sapiens, UniProt P10828); assay: Thyroid-hormone reporter-gene assay, TRβ; format: cell-based; conditions: for EC50: HEK293-derived reporter cells, firefly luciferase, 24 hr incubation; for T3-SI, selectivity index EC50 (TRα)/EC50 (TRβ): calculated from the reporter-gene EC50 values
T2 construct: expressed in transfected cells; host or cells: HEK293
T2 sequence (P10828 217-461 limits assumed): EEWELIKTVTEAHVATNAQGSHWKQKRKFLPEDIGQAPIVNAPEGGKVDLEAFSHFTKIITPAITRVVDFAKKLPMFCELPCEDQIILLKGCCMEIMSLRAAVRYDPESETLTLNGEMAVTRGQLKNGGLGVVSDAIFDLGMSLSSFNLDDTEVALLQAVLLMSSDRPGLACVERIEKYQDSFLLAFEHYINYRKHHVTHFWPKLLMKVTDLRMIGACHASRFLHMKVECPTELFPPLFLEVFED
Protocol: as §1

SMILES	EC50 [1] [nM]	EC50 [2] [nM]	T3-SI, selectivity index EC50 (TRα)/EC50 (TRβ) [2]
CC(C)c1cc(Cc2c(Cl)cc(-n3nc(C#N)c(O)nc3=O)cc2Cl)ccc1O [Compound 1, 2-(3,5-dichloro-4-(4-hydroxy-3-isopropylbenzyl)phenyl)-5-hydroxy-3-oxo-2,3-dihydro-1,2,4-triazine-6-carbonitrile]	100 to 1000	10 to 100	+++ (T3-SI>30×)
CC(C)c1c(O)ccc(Cc2c(Cl)cc(-n3nc(C#N)c(O)nc3=O)cc2Cl)c1F [Compound 2, 2-(3,5-dichloro-4-(2-fluoro-4-hydroxy-3-isopropylbenzyl)phenyl)-5-hydroxy-3-oxo-2,3-dihydro-1,2,4-triazine-6-carbonitrile]	10 to 100	10 to 100	++ (3×<T3-SI≤30×)
N#Cc1nn(-c2cc(Cl)c(Cc3ccc(O)c(-c4cccc(OC(F)F)c4)c3)c(Cl)c2)c(=O)nc1O [Compound 3, 2-(3,5-dichloro-4-((3′-(difluoromethoxy)-6-hydroxy-[1,1′-biphenyl]-3-yl)methyl)phenyl)-5-hydroxy-3-oxo-2,3-dihydro-1,2,4-triazine-6-carbonitrile]	> 1000	100 to 1000	+++ (T3-SI>30×)
CC(C)c1c(O)ccc(Cc2c(Cl)cc(-c3cc(F)c(O)c(F)c3)cc2Cl)c1F [Compound 7, 3′,5′-dichloro-3,5-difluoro-4′-(2-fluoro-4-hydroxy-3-isopropylbenzyl)-[1,1′-biphenyl]-4-ol]	> 1000	100 to 1000	++ (3×<T3-SI≤30×)
CC(C)c1c(O)ccc(Cc2c(Cl)cc(-c3ccc(F)c(O)c3F)cc2Cl)c1F [Compound 8, 3′,5′-dichloro-2,4-difluoro-4′-(2-fluoro-4-hydroxy-3-isopropylbenzyl)-[1,1′-biphenyl]-3-ol]	> 1000	> 1000	

Next, values leading:

EC50 [1] [nM]	EC50 [2] [nM]	T3-SI, selectivity index EC50 (TRα)/EC50 (TRβ) [2]	SMILES
> 1000	100 to 1000	++ (3×<T3-SI≤30×)	N#Cc1nn(-c2cc(Cl)c(Cc3ccc(O)c(Cc4ccc(F)cc4)c3)c(Cl)c2)c(=O)nc1O [Compound 4, 2-(3,5-dichloro-4-(3-(4-fluorobenzyl)-4-hydroxybenzyl)phenyl)-5-hydroxy-3-oxo-2,3-dihydro-1,2,4-triazine-6-carbonitrile]
10 to 100	< 10	++ (3×<T3-SI≤30×)	CC(C)c1cc(Cc2c(Cl)cc(-n3nc(C#N)c(O)nc3=O)cc2C(C)C)ccc1O [Compound 5, 2-(3-chloro-4-(4-hydroxy-3-isopropylbenzyl)-5-isopropylphenyl)-5-hydroxy-3-oxo-2,3-dihydro-1,2,4-triazine-6-carbonitrile]
100 to 1000	100 to 1000	++ (3×<T3-SI≤30×)	CC(C)c1cc(Cc2c(Cl)cc(-n3nc(C#N)c(O)nc3=O)c(F)c2Cl)ccc1O [Compound 6, 2-(3,5-dichloro-2-fluoro-4-(4-hydroxy-3-isopropylbenzyl)phenyl)-5-hydroxy-3-oxo-2,3-dihydro-1,2,4-triazine-6-carbonitrile]
100 to 1000	10 to 100	++ (3×<T3-SI≤30×)	CC(C)c1cc(Cc2c(Cl)cc(-c3cc(O)no3)cc2Cl)ccc1O [Compound 9, 5-(3,5-dichloro-4-(4-hydroxy-3-isopropylbenzyl)phenyl)isoxazol-3-ol]
< 10	< 10	++ (3×<T3-SI≤30×)	O=c1nc(O)cnn1-c1cc(Cl)c(Cc2ccc(O)c(-c3cccc(OC(F)F)c3)c2)c(Cl)c1 [Compound 10, 2-(3,5-dichloro-4-((3′-(difluoromethoxy)-6-hydroxy-[1,1′-biphenyl]-3-yl)methyl)phenyl)-5-hydroxy-1,2,4-triazin-3(2H)-one]
